Test results: US7910599B2 (priority 2005, dated 2011)
Entries after “also recorded” stand apart in the source; their conditions may differ.

How the values were obtained:
rats = assay: Rats kept continually on antagonist in the food, alcohol drinking; format: in vivo, rat; details: large doses in the food, continual presence; less reduction than selective extinction with naloxone
humans [1] = details: highly palatable versus less pleasant tasting foods; cited from earlier work
humans [2] = details: acute study; cited from earlier work
Male Wistar rats = assay: Selective extinction in alcohol-experienced rats: naloxone before alcohol access, saccharin access without injection; format: in vivo, rat
Procedure: The example included here is a prior preclinical experiment in which the alternative opioidergically-reinforced behavior was saccharin drinking. Alcohol experienced rats had continual access to food and water. Alcohol solution was available for only an hour a day for 2 to 4 days. On the next day or two, saccharin solution instead was available. Naloxone (or saline for the control group) was injected prior to the alcohol session.
Male Wistar rats (n=26) were individually housed with daily access to 10% ethanol, with food and water always present. After 2 months prior experience, the rats were switched to having 2-4 alcohol-access days interspersed with 1 or 2 days when saccharin solution (1 g/l) was available for 1 hr. […] No injections were made prior to saccharin access.

alcoholics = details: cited from earlier work
[3] = test system: patients suffering from binge eating; details: 50 mg once, twice or 3 times daily; cited from earlier work
[4] = continual administration; cited from earlier work
humans [5] = details: cited from earlier work
[6] = subcutaneous naloxone prior to alcohol access, dose reduced from 10.000 to 0.005 mg/kg

Compound	alcohol drinking (rats)	food intake (humans [1])	size of an eating binge (humans [2])	saccharin drinking in the same animals (Male Wistar rats; first three weeks)	alcohol drinking (Male Wistar rats; first three weeks, naloxone doses in the range previously found effective)	alcohol drinking in comparison with saline controls and own prior levels (Male Wistar rats; subcutaneous naloxone prior to alcohol access (10% ethanol), dose progressively reduced from 10.000 to 0.005 mg/kg)	time alcohol drinking continued to be significantly reduced (Male Wistar rats; [6]) [weeks]	time alcohol drinking was reduced to nearly zero for most rats (Male Wistar rats; [6]) [weeks]	efficacy in alcoholism when given during abstinence (alcoholics; naltrexone given during abstinence)	efficacy in alcoholism when paired with alcohol drinking (alcoholics; naltrexone paired with drinking (extinction method))	maximum days per week (naltrexone and drinking) reported by complying patients (alcoholics; three-year follow-up, mean ± SEM) [days per week]	treatment of binge eating versus placebo [3]	side-effects [4]	preference for saccharin (humans [5])
C=C1CC[C@@]2(O)[C@H]3Cc4ccc(O)c5c4[C@@]2(CCN3CC2CC2)[C@H]1O5 [nalmefene]	significantly lowered	suppresses intake of highly palatable foods but not that of less pleasant tasting ones												
C=CCN1CC[C@]23c4c5ccc(O)c4O[C@H]2C(=O)CC[C@@]3(O)[C@H]1C5 [naloxone]			significantly reduced	significantly increased	practically abolished	strongly reduced; also recorded: significantly reduced	8	6						
O=C1CC[C@@]2(O)[C@H]3Cc4ccc(O)c5c4[C@@]2(CCN3CC2CC2)[C@H]1O5 [naltrexone]	significantly lowered								tended to be worse than placebo	effective	1.5±0.4	not significantly better than placebo	liver toxicity	reduces
